Bridge positions count the residues as written; N and C are the ends. Ends that are not written are not given here.

For one assay, the system named is muscle or muscle cells. The assay can be described thus: suppression of insulin action (insulin action suppressing activity). As to conditions: qualitative statement; no data or test conditions printed. The text has this: The phrase "insulin action suppressing activity", as used throughout this Specification and the appendant claims, includes, but is not limited to, the ability of a polypeptide of this invention to suppress the effect which insulin has upon muscle or muscle cells. By way of example and not of limitation, the polypeptides of this invention suppress insulin-stimulated glycogen synthesis in muscle or muscle cells.

In a further assay the test system is isolated soleus muscle. As to conditions: Leighton et al. 1988, Cooper et al. 1988; cited from earlier work.

On to “Bolton-Hunter derivative of amylin: Bolton-Hunter derivative of amylin of the drawn formula wherein W is SEQUENCE ID NO:1 (KCNTATCATQRLANFLVHSSNNFGAILSSTNVGSNTY; not fully specified (C-terminus, bridges); cysteine pairing not given here; also: Bolton-Hunter reagent derivative, attachment site not given here; UniProt P10997 34-70, looked up)”, for which the suppress insulin action result with muscle or muscle cells is reported as “will not suppress insulin action”.
As to “amylin: 37 amino acid polypeptide with a disulfide bond between Cys 2 and 7; secretory product of pancreatic β cells (KCNTATCATQRLANFLVHSSNNFGAILSSTNVGSNTY; disulfide 2-7; not fully specified (C-terminus); UniProt P10997 34-70, looked up)”, in the assay on isolated soleus muscle, the insulin-stimulated glycogen synthesis result was “suppresses insulin-stimulated glycogen synthesis”.

Source of the values: patent EP0654042B1, “AMYLIN MUTEINS” (PFIZER INC., priority 1992, dated 1998).
